Measurements taken from the NIST ThermoML archive (doi:10.1016/j.jct.2010.05.002).

Assay: molar heat capacity at constant pressure
Settings: 101.33 kPa, Crystal 2, Vacuum adiabatic calorimetry

Cc1ccc(-c2ccccc2)cc1 [4-methylbiphenyl]
Settings | molar heat capacity at constant pressure [J/K/mol]
8.42 K | 3.698
8.7 K | 3.996
8.96 K | 4.244
9.47 K | 4.835
9.97 K | 5.433
10.28 K | 5.778
10.67 K | 6.273
11.06 K | 6.777
11.44 K | 7.338
11.83 K | 7.812
12.21 K | 8.286
12.59 K | 8.722
12.96 K | 9.194
13.35 K | 9.76
13.72 K | 10.44
14.09 K | 10.74
14.46 K | 11.37
14.83 K | 11.81
15.2 K | 12.22
15.56 K | 12.8
15.92 K | 13.35
16.28 K | 13.95
16.65 K | 14.46
17.01 K | 14.64
17.37 K | 15.38
17.72 K | 16.09
18.08 K | 16.37
18.44 K | 17.11
18.79 K | 17.51
19.88 K | 19.13
20.58 K | 20.29
21.36 K | 21.32
22.14 K | 22.38
22.91 K | 23.6
23.69 K | 24.61
24.46 K | 25.76
25.23 K | 26.8
26 K | 27.57
26.76 K | 28.86
27.53 K | 30.07
28.29 K | 30.9
29.05 K | 32.05
29.81 K | 33.03
30.57 K | 34.28
31.33 K | 35.24
32.09 K | 36.41
32.86 K | 36.83
33.62 K | 38.31
34.37 K | 39.14
35.13 K | 39.93
35.88 K | 41.05
36.64 K | 41.53
37.39 K | 42.34
38.14 K | 43.78
38.9 K | 44.06
39.65 K | 45.4
40.4 K | 45.99
41.15 K | 46.64
41.9 K | 47.81
42.65 K | 48.69
43.4 K | 49.76
44.15 K | 50.64
44.91 K | 50.57
45.66 K | 51.28
46.41 K | 52.33
47.16 K | 53.31
47.91 K | 53.96
48.65 K | 55.09
49.4 K | 56.25
50.15 K | 56.83
50.9 K | 57.26
51.65 K | 58.12
52.4 K | 59.37
53.15 K | 59.9
53.9 K | 60.72
54.64 K | 61.66
55.39 K | 62.7
56.14 K | 63.64
56.89 K | 63.48
57.64 K | 64.25
58.39 K | 64.5
59.13 K | 64.98
59.88 K | 65.47
60.63 K | 66.03
61.37 K | 65.92
62.12 K | 66.39
62.86 K | 67.01
63.6 K | 67.59
64.35 K | 67.75
65.09 K | 68.24
65.83 K | 68.99
66.57 K | 69.46
67.32 K | 69.91
68.06 K | 70.28
68.8 K | 70.75
69.54 K | 72.08
70.28 K | 72.22
71.18 K | 72.29
72.22 K | 73.13
73.27 K | 74.21
74.32 K | 74.62
75.37 K | 75.51
76.42 K | 75.54
77.47 K | 76.16
78.51 K | 77.53
78.8 K | 78.32
79.56 K | 77.92
80.6 K | 79.11
81.65 K | 79.67
82.17 K | 81.46
83.21 K | 81.22
84.78 K | 82.63
85.83 K | 84.24
87.34 K | 85.25
88.37 K | 86.4
89.4 K | 87.09
90.43 K | 87.85
91.47 K | 88.19
92.5 K | 89.19
93.53 K | 89.62
94.55 K | 90.59
95.58 K | 91.13
96.61 K | 92.3
97.64 K | 93.83
98.66 K | 92.61
99.69 K | 94.23
100.72 K | 95.15
101.74 K | 95.13
102.77 K | 95.55
104.82 K | 96.61
105.84 K | 97.41
106.86 K | 98.57
107.88 K | 99.36
108.9 K | 99.57
109.93 K | 100.46
110.95 K | 100.63
111.97 K | 100.49
112.99 K | 102.03
114.01 K | 102.56
115.02 K | 103.36
116.04 K | 104.67
117.06 K | 104.77
118.08 K | 104.33
119.1 K | 105.95
120.12 K | 106.87
121.14 K | 106.67
122.15 K | 107.47
123.17 K | 108.38
124.18 K | 108.38
125.2 K | 108.94
126.21 K | 110.22
127.23 K | 110.82
128.23 K | 111.43
129.25 K | 111
130.26 K | 112.24
131.27 K | 113.68
132.28 K | 113.17
133.29 K | 114.17
134.3 K | 115.39
135.31 K | 115.98
136.32 K | 115.79
137.33 K | 115.95
138.33 K | 116.76
139.34 K | 118.07
140.34 K | 119.05
141.35 K | 119.04
142.35 K | 119.96
143.36 K | 120
144.35 K | 120.48
145.36 K | 120.67
146.36 K | 122
147.36 K | 122.17
148.36 K | 124.22
149.36 K | 124.87
150.36 K | 125.07
151.36 K | 125.72
153.66 K | 127.07
154.92 K | 127.26
155.92 K | 127.72
156.91 K | 128.68
157.91 K | 129.05
158.9 K | 129.98
159.89 K | 130.91
162.88 K | 133.43
163.87 K | 132.72
164.87 K | 133.55
165.85 K | 133.77
166.84 K | 134.91
167.83 K | 135.89
169.79 K | 137.42
170.78 K | 137.22
171.76 K | 137.79
172.74 K | 138.45
173.73 K | 139.11
174.71 K | 140.53
175.69 K | 140.7
176.68 K | 141.47
177.66 K | 142.43
178.64 K | 143.15
179.62 K | 143.76
180.6 K | 144.25
181.58 K | 145.06
182.56 K | 146.17
183.54 K | 146.07
184.52 K | 146.77
185.47 K | 148
186.45 K | 148.42
187.42 K | 148.71
188.4 K | 149.77
189.37 K | 150.31
190.34 K | 151.29
191.32 K | 152.46
192.29 K | 153.07
193.26 K | 153.26
194.23 K | 154.48
195.2 K | 154.92
196.17 K | 155.18
197.14 K | 156.43
198.1 K | 156.66
199.07 K | 156.85
